As usually defined, the IC50 is the concentration that gives 50% inhibition. Low readings indicate greater potency in that assay, high ones weaker potency in that assay.

SMILES strings stand for the structures.

Consider two compounds from US11980598B2, “N-(2-(substituted-naphth-1-yl)ethyl) substituted amide compound, preparation and uses thereof” (BEIJING GREATWAY PHARMACEUTICAL TECHNOLOGY CO., LTD., priority 2017, dated 2024).

One data set relates to Kunming mice. Description: Tail suspension test (TST) in mice. It counts as in vivo, mouse. The note with it: 10 mg/kg intraperitoneal, 3 days, last 4 of 6 min. The procedure: Animals: Kunming mice, male, body weight 18-22 g, SPF grade; SD rats, male, body weight 150-180 g, SPF grade. The test was carried out after acclimatization, and the animal was fasted for 12 hours before the test.
All drugs for the test were suspended and dispersed in a 1% aqueous solution of hydroxypropyl methylcellulose (HPMC), and shaken well before use. […] The doses for administration were all 10 mg/kg. For the concentration and volume for administration, see J Psychiatry Neurosci 2004; 29(2):126-133. The mice were intraperitoneally administered in a volume of 0.5 mL/20 g; and the rats were administered by i.g. in a volume of 2 mL/100 g.
Mice were randomly divided into groups according to weight balance. Intraperitoneal injection was administered for three consecutive days, once a day, and the tail suspension test were performed 30 minutes after the third day. The tail suspension box was 25×25×35 cm, and a small clip was connected with a rope at the center of the top plate. An adhesive tape was stuck to the tail of the mouse 2 cm away from the tail end, and the adhesive tape was clamped with the clip to make the mouse in an inverted position. The duration of immobility was recorded during the last 4 minutes of total 6 minutes observed.

For a further data set, the system named is chronic stress rat. Nature of the data set: Chronic unpredictable stress model of rat: novelty-suppressed feeding test. It counts as in vivo. The settings on record: stress rats, day 31. The procedure: Animals: SD rats, male, weighing 150-180 g, SPF grade.
Formulation and administration mode of drugs: All drugs for the test were suspended and dispersed with a 0.5% aqueous solution of CMC-Na, and shaken well before use. The rats were administered by i.g. at a volume of 10 mL/kg.
Rats were acclimatized for 3 days after purchase. First, 48 h of sucrose training was performed. After the training, a sucrose baseline test was performed. The rats were randomly and evenly grouped according to sucrose preference. Then, (dl) a 4-week chronic unpredictable stress (CUS) procedure was performed with the following stress methods: (1) food deprivation (fasting); (2) water deprivation; (3) stroboflash; (4) overnight illumination; (5) wet feeding (200 ml of water was added to 150 g of sawdust bedding); (6) noise stimulation (110 dB), 1 h; (7) swimming in cold water (the water temperature was 10° C.); (8) cage tilt (45 degrees of inclination); (9) tail pinch (at 1 cm away from the tail root) for 6 min; (10) restraint for 1-2 h. One of the above stress methods was used randomly every day, but water deprivation and fasting were separated. The corresponding drugs (including the blank control group and the positive drug group) were given 1 h before the stress in the morning every day. Behavior test was performed after the end of the chronic stress. d25, sucrose preference; d28, open-field; d31, novelty-suppressed feeding test.
On the 29th day of the stress program, the rats were fasted for 48 hours (not water deprivation) and then subjected to a novelty-suppressed feeding test (d31). The rats were placed in a novelty-suppressed feeding chamber with an open top. The bottom of the chamber was covered with a 2 cm thick sawdust. In the center of the chamber were placed 12 food balls of the same size. At the same time as the rats were put in, the latency of the rats to start eating within 5 min was calculated. The criterion for eating was that the animal started chewing food instead of just sniffing or toying with food. Rats that had not eaten within 5 minutes were recorded to have a feeding latency of 5 minutes. The test environment of the test should be kept as quiet as possible; the rats should be placed in the same position and direction each time; the environment of the test was preferably different from the breeding environment, and the light intensity of the test environment was greater than that of the breeding environment.

For data set [1] the following is noted: background statement; cited from earlier work.
For data set [2] the following is noted: cited from earlier work.
For another data set, the target named is CYP1A2 (Homo sapiens (Human), UniProt P05177). The note with it: cited from earlier work.
Data set [3] has as its target human MT1 receptor membrane protein (Homo sapiens (Human), UniProt P48039). Description: MT1 receptor binding test ([3H]-Melotonin competition). On the procedure:
The receptors included a MT1/MT2 receptor and a 5-HT2C receptor. The test was divided into two parts: prescreening and rescreening. The results of prescreening were expressed as the percentage of binding, and the results of rescreening were expressed as the IC50 value (in M, i.e., mol/L).
(3) Tris-HCl buffer formulation: 50 mM Tris-HCl Buffer, 1 mM EDTA, 5 mM MgCl2, 0.1% NaN3, and then a certain proportion of PMSF was added to make pH 7.4.
(4) The example compound to be tested was dissolved in DMSO and formulated as a stock solution of 10^−2 M, and then diluted with distilled water to a concentration gradient of […]. The prescreening of the MT receptor binding test was performed at the concentration of 10^−5 M; the prescreening of the 5-HT2C receptor binding test was performed at the concentrations of 10^−5 and 10^−7 M.
The statistical analysis was performed using GraphPad Prism 5.0 software. The formula for receptor binding test was: inhibition (%)=[(total CPM of binding−CPM of tube with drug)/(total CPM of binding−non-specific CPM)]×100%, wherein CPM was count of a radioactive intensity.
10 μL of receptor membrane protein MT1 or MT2 was added to all the tubes. In non-specific binding tubes, 50 μL of a corresponding unlabeled ligand Ago at a concentration of 10^4 M was added to a final concentration of 10 μM, and pre-reacted for 30 minutes. In test tubes, 30 μL of test drug (MT1: a concentration of 10^4-10^−10 M, MT2: a concentration of […]) was added, respectively; all tubes were added with 40 μL [^3H]-Melotonin, respectively. […] The filter paper was taken out and dried by baking, and then placed in a scintillation bottle. 1 mL of the scintillation liquid was added, and the radioactive intensity was measured by a liquid scintillation counter.

Chain of human MT1 receptor membrane protein (P48039 whole entry): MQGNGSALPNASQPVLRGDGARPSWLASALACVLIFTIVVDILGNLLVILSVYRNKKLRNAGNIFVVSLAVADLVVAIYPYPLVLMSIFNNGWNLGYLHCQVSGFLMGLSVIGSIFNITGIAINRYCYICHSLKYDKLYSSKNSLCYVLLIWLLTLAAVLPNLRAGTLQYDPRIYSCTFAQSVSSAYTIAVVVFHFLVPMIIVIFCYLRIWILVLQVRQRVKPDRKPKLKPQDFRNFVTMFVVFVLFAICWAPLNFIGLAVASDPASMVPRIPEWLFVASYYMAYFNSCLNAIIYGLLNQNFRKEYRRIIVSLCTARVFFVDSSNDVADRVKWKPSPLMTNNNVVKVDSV
Chain of CYP1A2 (P05177 whole entry): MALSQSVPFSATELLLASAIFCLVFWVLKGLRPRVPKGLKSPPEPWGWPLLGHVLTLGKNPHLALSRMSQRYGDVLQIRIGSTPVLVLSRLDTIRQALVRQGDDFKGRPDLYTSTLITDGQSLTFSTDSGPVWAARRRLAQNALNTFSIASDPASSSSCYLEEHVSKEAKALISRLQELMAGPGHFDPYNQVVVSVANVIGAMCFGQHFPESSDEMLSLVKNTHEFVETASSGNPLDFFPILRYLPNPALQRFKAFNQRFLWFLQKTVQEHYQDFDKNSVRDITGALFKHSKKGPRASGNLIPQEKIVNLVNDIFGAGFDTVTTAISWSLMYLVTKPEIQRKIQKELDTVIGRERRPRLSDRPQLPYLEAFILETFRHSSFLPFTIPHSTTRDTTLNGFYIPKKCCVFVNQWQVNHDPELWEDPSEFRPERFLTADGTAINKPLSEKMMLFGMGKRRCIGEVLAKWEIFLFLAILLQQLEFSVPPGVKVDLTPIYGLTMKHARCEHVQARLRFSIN

`COc1ccc2cccc(CCNC(C)=O)c2c1` [Agomelatine, reference compound] had an Immobility time with Kunming mice of 75.1 ± 21.4 s. Besides, the results for the Feeding latency in the data set with chronic stress rat (10 mg/kg i.g. daily), in the data set with chronic stress rat (20 mg/kg i.g. daily) and with chronic stress rat (40 mg/kg i.g. daily) were 248 ± 21 ^ s, 164 ± 26 s and 130 ± 17 s, respectively. In addition, the absolute bioavailability result in data set [1] is on record as “below 5%”. In data set [1], the oral absorption entry was “over 80%”. For the same compound, the “patients with an increase in ALT/AST (three times above the normal upper limit)” value in data set [2] is “more than 1%”. The “share metabolized by CYP1A2” value at CYP1A2 is recorded as “about 90%”.
`[2H]C([2H])([2H])Oc1cc2c(CCNC(C)=O)cccc2cc1Cl` [Example 1, N-(2-(6-chloro-7-deuteromethoxy-naphthalen-1-yl)ethyl)acetamide]: in data set [3] (prescreening, 10^−5 M), the “MT1 binding ratio (I %)” value was determined as 84%. For the same compound, the IC50 in data set [3] (rescreening) was determined as 450 ± 260 pM. The same compound yielded an Immobility time with Kunming mice of 55.7 ± 19.7 s. In addition, the Feeding latency with chronic stress rat (5 mg/kg i.g. daily) is on record as 188 ± 21 s; in the data set with chronic stress rat (10 mg/kg i.g. daily), 145 ± 23 s; with chronic stress rat (20 mg/kg i.g. daily), 115 ± 16 s; with chronic stress rat (40 mg/kg i.g. daily), 117 ± 14 s.
